Experimental data published in patent US11717013B1, “Micronutrient combination to reduce blood pressure” (priority 2022, dated 2023).

Target: T1, Angiotensin I Converting Enzyme isolated from cultured human aortic endothelial cells (Homo sapiens, UniProt P12821)
T1 construct: host or cells: human aortic endothelial cells (AoEC), lysed with CelLytic M
Test: ACE activity assay, ACE isolated from cultured human aortic endothelial cells
Assay type: biochemical
Details: 200 mcg/ml (FIG. 5); read-out: inhibition of ACE1 activity
Experimental: ACE 1 activity: Effects of New Micronutrient composition on catalytic activity of Angiotensin I Converting Enzyme (ACE) was analyzed using recombinant catalytic ACE domain (Sigma) or ACE isolated from cultured human aortic endothelial cells (AoEC) with ACE Activity Assay Kit (Fluorometric, Sigma, Catalog Number CS0002) in accordance with manufacturer's protocol. For preparation of cell lysate ACE human AoEC (Lonza) were plated in 75 cm2 plastic flask at 6th passage and cultured with EGB-2 endothelial cell culture medium (Lonza) in 5%CO2 at 37 °C until cell forming a confluent layer. Cells were washed twice with 10 ml phosphate buffered solution (PBS) and lysated by scratching and resuspending in 5 ml CelLytic™ M solution (Sigma) after 15 min incubation at room temperature. Results are expressed as percentage of untreated controls presented as averages +/− SD from three replicates. The results on FIG. 4 show concentration dependent inhibitory effect of the micronutrient composition for blood pressure lowering on catalytic activity of Angiotensin1 converting enzyme. Changes in ACE1 activity are expressed in % compared to control. The formula applied at 3 mcg/ml inhibits ACE1 by 20% with the most pronounced inhibitory effect of 90% and 97% obtained at 50 mcg/ml and 200 mcg/ml respectively. […]

T1 sequence (P12821 30-1306): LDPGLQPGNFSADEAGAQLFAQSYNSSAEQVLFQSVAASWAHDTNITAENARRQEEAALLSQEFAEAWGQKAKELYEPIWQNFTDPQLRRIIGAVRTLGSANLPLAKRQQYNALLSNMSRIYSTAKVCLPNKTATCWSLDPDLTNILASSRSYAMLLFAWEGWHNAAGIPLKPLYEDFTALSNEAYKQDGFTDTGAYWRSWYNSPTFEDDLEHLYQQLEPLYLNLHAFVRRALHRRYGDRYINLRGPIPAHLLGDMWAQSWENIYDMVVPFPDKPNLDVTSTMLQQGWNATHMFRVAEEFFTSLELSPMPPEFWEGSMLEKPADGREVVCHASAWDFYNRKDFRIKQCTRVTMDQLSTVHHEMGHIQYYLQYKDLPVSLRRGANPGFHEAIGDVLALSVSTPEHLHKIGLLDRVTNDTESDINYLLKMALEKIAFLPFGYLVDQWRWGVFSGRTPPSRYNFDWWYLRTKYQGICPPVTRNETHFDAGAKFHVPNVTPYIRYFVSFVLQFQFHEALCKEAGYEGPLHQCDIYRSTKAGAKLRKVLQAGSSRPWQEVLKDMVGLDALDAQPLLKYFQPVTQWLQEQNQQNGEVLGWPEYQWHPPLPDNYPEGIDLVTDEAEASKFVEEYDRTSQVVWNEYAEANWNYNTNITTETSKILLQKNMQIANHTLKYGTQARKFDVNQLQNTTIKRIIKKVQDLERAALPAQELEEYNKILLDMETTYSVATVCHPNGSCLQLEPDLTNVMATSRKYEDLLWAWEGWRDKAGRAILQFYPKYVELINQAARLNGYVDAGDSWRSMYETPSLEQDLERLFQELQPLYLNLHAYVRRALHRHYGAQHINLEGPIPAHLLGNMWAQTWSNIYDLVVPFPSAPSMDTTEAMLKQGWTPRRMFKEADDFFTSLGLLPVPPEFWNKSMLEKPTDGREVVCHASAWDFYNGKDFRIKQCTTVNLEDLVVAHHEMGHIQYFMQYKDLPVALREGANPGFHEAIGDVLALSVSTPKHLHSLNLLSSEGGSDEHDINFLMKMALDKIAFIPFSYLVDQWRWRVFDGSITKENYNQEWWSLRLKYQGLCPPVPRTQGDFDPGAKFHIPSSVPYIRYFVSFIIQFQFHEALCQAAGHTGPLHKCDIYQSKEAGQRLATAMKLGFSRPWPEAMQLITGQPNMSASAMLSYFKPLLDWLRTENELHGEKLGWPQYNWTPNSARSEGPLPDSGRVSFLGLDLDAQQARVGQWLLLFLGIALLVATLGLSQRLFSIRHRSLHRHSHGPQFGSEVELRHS

Q: Which inhibition at 200 µg/mL does the source give for `NCCCC[C@H](N[C@@H](CCc1ccccc1)C(=O)O)C(=O)N1CCC[C@H]1C(=O)O` [Lisinopril] here?
A: 16%
